# Columns and labels:
# NF-κB-p65 [1] = assay: LPS-induced NF-κB-p65 nuclear translocation in SOD1^G93A primary microglia; format: cell-based, rat; conditions: BANA 10-30 μM before LPS
# Method: FIG. 8D: Confocal images show CD11b-positive SOD1^G93A primary microglia (grey) treated with BANA, BA or vehicle, before LPS stimulation. […] Nuclear NF-κB-p65 colocalizing with DAPI nuclear staining is denoted in yellow.
# Nuclear NF-κB-p65 colocalizing with DAPI nuclear staining is denoted in yellow. […] Scale bar=20 μm. […] 2 replicates of 3 independent experiments.
# The effects of BANA on LPS- or TNFα-induced NF-κB activation were also assayed in cell cultures of BV2 microglial cell line and primary adult microglia isolated from symptomatic SOD1^G93A rats, and HT-29 NF-κB reporter cell line, respectively.
# NF-κB-p65 [2] = assay: LPS-induced NF-κB-p65 nuclear translocation in BV2 cells (immunocytochemistry); format: cell-based, murine; conditions: BANA 10, 20, 30 μM, BA 30 μM or DMF for 3 hrs before LPS 100 ng/ml
# Method: The effect of BANA on nuclear translocation of NF-κB was studied by immunocytochemistry using murine microglia cell line BV2.
# Cells were then treated with BANA (10, 20 and 30 μM) or B.A (30 μM) for 3 hrs. After treatment, cells were stimulated with LPS (100 ng/ml) for 30 minutes. Then, cells were washed and fixed with PFA 4% for 20 minutes at 4° C. and washed with PBS. Immunocytochemistry was performed as follows: cells were permeabilized using 0.5% Triton in PBS for 15 minutes, and then blocked using 5% of BSA for 1 h at room temperature. Rabbit anti-NF-κB-p65 (ab16502, 1/200) and mouse anti-CD11b (BD550219, 1/100) were incubated overnight at 4° C. After that, primary antibodies were removed, washed with PBS 3 times for 10 minutes, and Alexa-fluor-conjugated goat anti-rabbit or goat anti-mouse antibodies (1:1000) were incubated for 2 h at room temperature. After secondary antibodies were removed, cells were covered in glycerol mounting medium with 1/2000 DAPI staining. Cells were analyzed by confocal microscopy using a confocal ZEISS LSM 800. NF-κB-p65+ nuclei were counted and ratio of DAPI to NF-κB-p65 labeling was compared among groups. Data were analyzed using analyzing tools of ImageJ and GraphPad Prism 7 software.
# NLRP3 inflammasome = assay: Inflammasome activation in THP-1 cells (LPS and ATP), IL-1β ELISA; format: cell-based, Human; conditions: 30 μM, in first or second signal (LPS and ATP), compared with vehicle
# Method: The effect of BANA or BA over NF-κB-dependent gene expression was studied by qPCR using THP-1 cells. THP-1 cells were differentiated into macrophages and treated with BANA (30 μM) or BA (30 μM) for 2 hs, followed by stimulation with LPS (100 ng/mL, for 3-4 h).
# For inflammasome activation, THP-1 cells were treated with LPS (as above) followed by exposure to ATP (5 mM, 45 min). IL-1β in the supernatant was then measured by ELISA (B&D OptEIA TM, San Diego, CA, USA).
smiles,measurement,setting,value
"O=C(O)c1ccccc1 [benzoic acid, reference compound]",LPS-induced NF-κB-p65 nuclear translocation,NF-κB-p65 [1],devoid of inhibitory effect
same,LPS-induced NF-κB-p65 nuclear translocation,NF-κB-p65 [2],devoid of inhibitory effect
same,release of IL-1β,NLRP3 inflammasome,devoid of anti-inflammatory effects

# — US20260060947A1 (INSTITUT PASTEUR DE MONTEVIDEO, priority 2019, published 2026)
